How the values were obtained:
Type in all cases: in vivo, Arabidopsis thaliana
[1] = tested on: Cesa1_G1009D, fpx2-3 mutant line; experiment: Greenhouse phytotox, pre-emergent treatment
Description: (§1) Additionally, M2 or M3 Arabidopsis plants are tested for improved tolerance to cellulose biosynthesis-inhibiting herbicides in greenhouse studies (e. g. with the following cellulose biosynthesis-inhibiting herbicides: 6-cyclopentyl-N4-(2,3,4,5,6-pentafluorophenyl)-1,3,5-triazine-2,4-diamine; 6-(1-fluoro-1-methyl-ethyl)-N4-(2,3,4,5,6-pentafluorophenyl)-1,3,5-triazine-2,4-diamine; N4-(4-chloro-3,5,6-trifluoro-2-pyridyl)-6-(1-fluoro-1-methyl-ethyl)-1,3,5-triazine-2,4-diamine; 6-(2,6-difluorophenyl)-N4-(2,3,5,6-tetrafluorophenyl)-1,3,5-triazine-2,4-diamine; N4-(4-bromo-2,3,5,6-tetrafluoro-phenyl)-6-(1-fluoro-1-methyl-ethyl)-1,3,5-triazine-2,4-diamine.

[2] = tested on: Cesa3_S1037F, fpx1-2 mutant line; experiment: Greenhouse phytotox, pre-emergent treatment
Description: as §1

[3] = tested on: Cesa1_P1010L, fpx2-2 mutant line; experiment: Greenhouse phytotox, pre-emergent treatment
Description: as §1

[4] = tested on: Cesa3_S1040L, fpx1-1 mutant line; experiment: Greenhouse phytotox, pre-emergent treatment
Description: as §1

[5] = tested on: Cesa3_S983F, fpx1-3 mutant line; experiment: Greenhouse phytotox, pre-emergent treatment
Description: as §1

[6] = tested on: A. thaliana WT L. erecta; experiment: Greenhouse phytotox, pre-emergent treatment
Description: as §1

[7] = tested on: Cesa1_G1013R, fpx2-1 mutant line; experiment: Greenhouse phytotox, pre-emergent treatment
Description: as §1

[8] = tested on: Cesa1_G1009D, fpx2-3 mutant line; experiment: Greenhouse phytotox, post-emergent treatment 6 weeks after sowing
Description: as §1

[9] = tested on: Cesa3_S1037F, fpx1-2 mutant line; experiment: as above
Description: as §1

[10] = tested on: Cesa1_P1010L, fpx2-2 mutant line; experiment: as above
Description: as §1

[11] = tested on: Cesa3_S1040L, fpx1-1 mutant line; experiment: as above
Description: as §1

[12] = tested on: Cesa3_S983F, fpx1-3 mutant line; experiment: as above
Description: as §1

[13] = tested on: A. thaliana WT L. erecta; experiment: as above
Description: as §1

[14] = tested on: Cesa1_G1013R, fpx2-1 mutant line; experiment: as above
Description: as §1

[15] = tested on: transgenic Arabidopsis plants, construct AtCESA1 wt; experiment: Growth inhibition of transgenic Arabidopsis in 48-well plates, tolerance factor from IC50; conditions: SEQ ID NO 1, growth inhibition seven to ten days after seeding
Source text: (§2) For transformation of Arabidopsis thaliana, wildtype or mutated cellulose synthase sequences based on one of the following sequences SEQ ID NO: 72, 73, 74, 75, 76, or 77, are cloned with standard cloning techniques as described in Sambrook et al. (Molecular cloning (2001) Cold Spring Harbor Laboratory Press) in a binary vector containing resistance marker gene cassette (AHAS) and mutated cellulose synthase sequence (marked as GOI) in between ubiquitin promoter (PcUbi) and nopaline synthase terminator (NOS) sequence. Binary plasmids are introduced to Agrobacterium tumefaciens for plant transformation. Arabidopsis thaliana are transformed with wildtype or mutated cellulose synthase sequences by floral dip method as decribed by McElver and Singh (WO 2008/124495). Transgenic Arabidopsis plants are subjected to TaqMan analysis for analysis of the number of integration loci.
(§3) Transgenic Arabidopsis thaliana plants are assayed for improved tolerance to azine herbicides like e. g. 6-cyclopentyl-N4-(2,3,4,5,6-pentafluorophenyl)-1,3,5-triazine-2,4-diamine in 48-well plates. Therefore, T2 seeds are surface sterilized by stirring for 5 min in ethanol+water (70+30 by volume), rinsing one time with ethanol+water (70+30 by volume) and two times with sterile, deionized water. The seeds are resuspended in 0.1% agar dissolved in water (w/v) Four to five seeds per well are plated on solid nutrient medium consisting of half-strength murashige skoog nutrient solution, pH 5.8 (Murashige and Skoog (1962) Physiologia Plantarum 15: 473-497). Compounds are dissolved in dimethylsulfoxid (DMSO) and added to the medium prior solidification (final DMSO concentration 0.1%). Multi well plates are incubated in a growth chamber at 22° C., 75% relative humidity and 110 μmol Phot*m^−2*s^−1 with 14:10 h light:dark photoperiod. Growth inhibition is evaluated seven to ten days after seeding in comparison to wild type plants. Tolerance factors are calculated based on IC50 values of growth inhibition of transformed versus non-transformed Arabidopsis plants.

[16] = tested on: transgenic Arabidopsis plants, construct AtCESA1_G1013R; experiment: as above; conditions: SEQ ID NO 1, substitution G1013R, growth inhibition seven to ten days after seeding
Source text: as §2, §3

[17] = tested on: transgenic Arabidopsis plants, construct AtCESA3_S1040L; experiment: as above; conditions: SEQ ID NO 3, substitution S1040L, growth inhibition seven to ten days after seeding
Source text: as §2, §3

[18] = tested on: transgenic Arabidopsis plants, construct AtCESA3_S1037F; experiment: as above; conditions: SEQ ID NO 3, substitution S1037F, growth inhibition seven to ten days after seeding
Source text: as §2, §3

[19] = tested on: transgenic Arabidopsis plants, construct AtCESA3_wt; experiment: as above; conditions: SEQ ID NO 3, growth inhibition seven to ten days after seeding
Source text: as §2, §3

Compound: Cc1cccc(-n2nc(C(N)=O)nc2-c2ccccc2)c1 [1-(m-tolyl)-5-phenyl-1,2,4-triazole-3-carboxamide, reference compound]
- Phytotox value on a scale from 0-100 (100 is 100% damage) ([1]; 3.91 g ai/ha): 0
- Phytotox value on a scale from 0-100 (100 is 100% damage) ([1]; 15.63 g ai/ha): 18
- Phytotox value on a scale from 0-100 (100 is 100% damage) ([1]; 62.5 g ai/ha): 30
- Phytotox value on a scale from 0-100 (100 is 100% damage) ([1]; 250 g ai/ha): 45
- Phytotox value on a scale from 0-100 (100 is 100% damage) ([2]; 3.91 g ai/ha): 0
- Phytotox value on a scale from 0-100 (100 is 100% damage) ([2]; 15.63 g ai/ha): 30
- Phytotox value on a scale from 0-100 (100 is 100% damage) ([2]; 62.5 g ai/ha): 23
- Phytotox value on a scale from 0-100 (100 is 100% damage) ([2]; 250 g ai/ha): 68
- Phytotox value on a scale from 0-100 (100 is 100% damage) ([3]; 3.91 g ai/ha): 0
- Phytotox value on a scale from 0-100 (100 is 100% damage) ([3]; 15.63 g ai/ha): 20
- Phytotox value on a scale from 0-100 (100 is 100% damage) ([3]; 62.5 g ai/ha): 13
- Phytotox value on a scale from 0-100 (100 is 100% damage) ([3]; 250 g ai/ha): 35
- Phytotox value on a scale from 0-100 (100 is 100% damage) ([4]; 3.91 g ai/ha): 38
- Phytotox value on a scale from 0-100 (100 is 100% damage) ([4]; 15.63 g ai/ha): 30
- Phytotox value on a scale from 0-100 (100 is 100% damage) ([4]; 62.5 g ai/ha): 0
- Phytotox value on a scale from 0-100 (100 is 100% damage) ([4]; 250 g ai/ha): 25
- Phytotox value on a scale from 0-100 (100 is 100% damage) ([5]; 3.91 g ai/ha): 0
- Phytotox value on a scale from 0-100 (100 is 100% damage) ([5]; 15.63 g ai/ha): 8
- Phytotox value on a scale from 0-100 (100 is 100% damage) ([5]; 62.5 g ai/ha): 5
- Phytotox value on a scale from 0-100 (100 is 100% damage) ([5]; 250 g ai/ha): 30
- Phytotox value on a scale from 0-100 (100 is 100% damage) ([6]; 3.91 g ai/ha): 0
- Phytotox value on a scale from 0-100 (100 is 100% damage) ([6]; 15.63 g ai/ha): 63
- Phytotox value on a scale from 0-100 (100 is 100% damage) ([6]; 62.5 g ai/ha): 100
- Phytotox value on a scale from 0-100 (100 is 100% damage) ([6]; 250 g ai/ha): 100
- Phytotox value on a scale from 0-100 (100 is 100% damage) ([7]; 3.91 g ai/ha): 5
- Phytotox value on a scale from 0-100 (100 is 100% damage) ([7]; 15.63 g ai/ha): 15
- Phytotox value on a scale from 0-100 (100 is 100% damage) ([7]; 62.5 g ai/ha): 20
- Phytotox value on a scale from 0-100 (100 is 100% damage) ([7]; 250 g ai/ha): 15
- Phytotox value on a scale from 0-100 (100 is 100% damage) ([8]; 62.5 g ai/ha): 23
- Phytotox value on a scale from 0-100 (100 is 100% damage) ([8]; 125 g ai/ha): 33
- Phytotox value on a scale from 0-100 (100 is 100% damage) ([8]; 250 g ai/ha): 45
- Phytotox value on a scale from 0-100 (100 is 100% damage) ([9]; 62.5 g ai/ha): 30
- Phytotox value on a scale from 0-100 (100 is 100% damage) ([9]; 125 g ai/ha): 50
- Phytotox value on a scale from 0-100 (100 is 100% damage) ([9]; 250 g ai/ha): 68
- Phytotox value on a scale from 0-100 (100 is 100% damage) ([10]; 62.5 g ai/ha): 15
- Phytotox value on a scale from 0-100 (100 is 100% damage) ([10]; 125 g ai/ha): 15
- Phytotox value on a scale from 0-100 (100 is 100% damage) ([10]; 250 g ai/ha): 48
- Phytotox value on a scale from 0-100 (100 is 100% damage) ([11]; 62.5 g ai/ha): 0
- Phytotox value on a scale from 0-100 (100 is 100% damage) ([11]; 125 g ai/ha): 23
- Phytotox value on a scale from 0-100 (100 is 100% damage) ([11]; 250 g ai/ha): 55
- Phytotox value on a scale from 0-100 (100 is 100% damage) ([12]; 62.5 g ai/ha): 28
- Phytotox value on a scale from 0-100 (100 is 100% damage) ([12]; 125 g ai/ha): 23
- Phytotox value on a scale from 0-100 (100 is 100% damage) ([12]; 250 g ai/ha): 53
- Phytotox value on a scale from 0-100 (100 is 100% damage) ([13]; 62.5 g ai/ha): 78
- Phytotox value on a scale from 0-100 (100 is 100% damage) ([13]; 125 g ai/ha): 83
- Phytotox value on a scale from 0-100 (100 is 100% damage) ([13]; 250 g ai/ha): 95
- Phytotox value on a scale from 0-100 (100 is 100% damage) ([14]; 62.5 g ai/ha): 23
- Phytotox value on a scale from 0-100 (100 is 100% damage) ([14]; 125 g ai/ha): 33
- Phytotox value on a scale from 0-100 (100 is 100% damage) ([14]; 250 g ai/ha): 40
- Relative tolerance rate (non-transgenic = 1.0) [15]: 3
- Relative tolerance rate (non-transgenic = 1.0) [16]: 33
- Relative tolerance rate (non-transgenic = 1.0) [17]: 2
- Relative tolerance rate (non-transgenic = 1.0) [18]: 1333
- Relative tolerance rate (non-transgenic = 1.0) [19]: 4

From patent US12480137B2, “Plants having increased tolerance to herbicides” (BASF SE, priority 2014, dated 2025)
